Measured values taken from patent US10052320B2, “Substituted quinoxalines as FGFR kinase inhibitors” (ASTEX THERAPEUTICS LIMITED, priority 2011, dated 2018).
Read-outs that look alike come from different tables or passages of the source.

Columns and labels:
[1] = system: Ba/F3-Flt3-transfected cells in the presence of 10 ng/ml murine IL3; test: Ba/F3-Flt3 (plus IL3) cellular proliferation counterscreen, Alamar Blue; format: cell-based; conditions: Mus musculus, read-out: BAF3-FLT3 (PLUS IL3) 96 well pIC50 (converted)
[2] = system: Ba/F3-Flt3-transfected cells in the presence of 10 ng/ml murine IL3; test: as above; format: cell-based; conditions: Mus musculus, read-out: BAF3-FLT3 (PLUS IL3) 384 well pIC50 (converted)
FGFR1 (h) = FGFR1 (h) (Homo sapiens, UniProt P11362); test: FGFR1 (enzymatic assay), TR-FRET; format: biochemical; conditions: read-out: FGFR 1 pIC50 (converted)
Method: In a final reaction volume of 30 μL, FGFR1 (h) (25 ng/ml) was incubated with 50 mM HEPES pH 7.5, 6 mM MnCl2, 1 mM DTT, 0.1 mM Na3VO4, 0.01% Triton-X-100, 500 nM Btn-Flt3 and 5 μM ATP in the presence of compound (1% DMSO final). […] Time-Resolved Fluorescence Resonance Energy Transfer (TR-FRET) signal (ex340 nm. Em 620 nm, em 655 nm) was measured afterwards and results are expressed in RFU (Relative Fluorescence Units).

[3] = system: Ba/F3-FGFR3-transfected cells in the presence of 10 ng/ml murine IL3; test: Ba/F3-FGFR3 (plus IL3) cellular proliferation counterscreen, Alamar Blue; format: cell-based; conditions: Mus musculus
How it was run: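 FGFR3-Ba/F3 cells, 20000/well (384-well) or 10000/well (96-well), phenol red free RPMI + 10% FBS; cpd in DMSO; 24 h, 37 °C/5% CO2; Alamar Blue 4 h; RFU ex540/em590.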

[4] = system: Ba/F3-KDR-transfected cells in the presence of 10 ng/ml murine IL3; test: Ba/F3-KDR (plus IL3) cellular proliferation counterscreen, Alamar Blue; format: cell-based; conditions: Mus musculus, plus 10 ng/ml murine IL3
Method: Ba/F3-KDR (Minus IL3 or Plus IL3) (Cellular Proliferation Assay)
[…] Cells were put in an incubator at 37° C. and 5% CO2. After 24 hours, 10 μl of Alamar Blue solution (0.5 mM K3Fe(CN)6, 0.5 mM KaFe(CN)6, 0.15 mM Resazurin and 100 mM Phosphate Buffer) was added to the wells, incubated for 4 hours at 37° C. and 5% CO2 before RFU's (Relative Fluorescence Units) (ex. 540 nm., em. 590 nm.) were measured in a flurorescence plate reader.
As a counterscreen the same experiment was performed in the presence of 10 ng/ml murine IL3.
In a 96 well plate, 180 μl cell culture medium (phenol red free RPMI-1640, 10% FBS, 2 mM L-Glutamine and 50 μg/ml Gentamycin) containing 10000 cells per well of Ba/F3-KDR-transfected cells were pipette and 20 μl of compound dilution in DMSO was added. Cells were put in an incubator at 37° C. and 5% CO2. After 24 hours, 40 μl of Alamar Blue solution (0.5 mM K3Fe(CN)6, 0.5 mM KaFe(CN)6, 0.15 mM Resazurin and 100 mM Phosphate Buffer) was added to the wells, incubated for 4 hours at 37° C. and 5% CO2 RFU's (Relative Fluorescence Units) (ex. 540 nm., em. 590 nm.) were measured in a flurorescence plate reader.

[5] = plus 10 ng/ml murine IL3, 384 well, read-out: BAF3-FGFR 3 (PLUS IL3) 384 well pIC50 (converted)
[6] = plus IL3, 96 well, read-out: BAF3-FGFR 3 (PLUS IL3) 96 well pIC50 (converted)
[7] = read-out: BAF3-KDR (PLUS IL3) 96 well pIC50 (converted)
[8] = read-out: BAF3-KDR (PLUS IL3) 384 well pIC50 (converted)

Sequence of FGFR1 (h) (P11362 22-822): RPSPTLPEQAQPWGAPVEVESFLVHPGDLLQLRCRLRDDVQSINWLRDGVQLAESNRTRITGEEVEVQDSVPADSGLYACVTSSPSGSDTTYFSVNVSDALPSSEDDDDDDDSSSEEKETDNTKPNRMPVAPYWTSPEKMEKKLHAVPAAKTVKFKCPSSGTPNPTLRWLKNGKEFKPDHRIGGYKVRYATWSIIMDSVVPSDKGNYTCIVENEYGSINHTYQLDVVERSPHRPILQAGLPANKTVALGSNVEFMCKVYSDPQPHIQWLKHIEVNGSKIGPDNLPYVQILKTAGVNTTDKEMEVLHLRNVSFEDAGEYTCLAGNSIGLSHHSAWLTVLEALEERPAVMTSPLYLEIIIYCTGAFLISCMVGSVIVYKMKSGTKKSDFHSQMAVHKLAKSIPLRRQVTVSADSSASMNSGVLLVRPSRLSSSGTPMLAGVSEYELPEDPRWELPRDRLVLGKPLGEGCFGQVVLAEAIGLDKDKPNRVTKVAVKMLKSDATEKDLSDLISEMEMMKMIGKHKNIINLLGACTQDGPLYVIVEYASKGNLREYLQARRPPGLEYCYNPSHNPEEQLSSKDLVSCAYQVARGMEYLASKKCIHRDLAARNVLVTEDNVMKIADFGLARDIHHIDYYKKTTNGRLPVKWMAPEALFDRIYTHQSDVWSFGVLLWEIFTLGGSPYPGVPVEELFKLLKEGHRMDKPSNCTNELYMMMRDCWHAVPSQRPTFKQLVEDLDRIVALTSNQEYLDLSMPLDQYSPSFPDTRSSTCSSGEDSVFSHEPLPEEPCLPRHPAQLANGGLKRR

SMILES	IC50 (FGFR1 (h))	IC50 ([1]; plus 10 ng/ml murine IL3)	IC50 ([2]; plus 10 ng/ml murine IL3)	IC50 [3, 5]	IC50 [3, 6]	IC50 [4, 7]	IC50 [4, 8]	IC50 ([1]; plus IL3, 96 well)	IC50 ([2]; plus IL3, 384 well)
COc1cc(OC)cc(N(CC2CC2)c2ccc3ncc(-c4nnn[nH]4)nc3c2)c1 [Compound 41]	0.0575 µM	> 10 µM	> 10 µM						
COc1cc(OC)cc(N(CC2CC2)c2ccc3ncc(-c4ccn(CCO)c4)nc3c2)c1 [Compound 56]		> 10 µM	> 10 µM	> 10 µM	> 10 µM	> 10 µM	> 10 µM		
COc1cc(OC)cc(N(CC2CC2)c2ccc3ncc(-c4ccn(C)c4)nc3c2)c1 [Compound 73]		> 10 µM	> 10 µM						
COc1cc(OC)cc(N(CC2CC2)c2ccc3ncc(-c4ccc5c(ccn5C)c4)nc3c2)c1 [Compound 20]								> 10 µM	> 10 µM
COc1cc(OC)cc(N(CC2CC2)c2ccc3ncc(Nc4cnn(C)c4)nc3c2)c1 [Compound 61]		6.76 µM	> 10 µM	> 10 µM	3.98 µM		> 10 µM		
COc1cc(OC)cc(N(CC2CC2)c2ccc3ncc(-n4ccc(C)n4)nc3c2)c1 [Compound 31]	0.933 µM	> 10 µM	> 10 µM						
COc1cc(OC)cc(N(CC2CC2)c2ccc3ncc(-c4cn(CCN5CCOCC5)nn4)nc3c2)c1 [Compound 24]	0.0204 µM	> 10 µM	> 10 µM						
COc1cc(OC)cc(N(CC2CC2)c2ccc3ncc(-c4cn(C)nn4)nc3c2)c1 [Compound 71]		> 10 µM	> 10 µM	> 10 µM	> 10 µM	> 10 µM	> 10 µM		
COc1cc(OC)cc(N(CC2CC2)c2ccc3ncc(-n4ccnc4C)nc3c2)c1 [Compound 32]	0.417 µM	> 10 µM	> 10 µM						
COc1cc(OC)cc(N(CC2CC2)c2ccc3ncc(C#Cc4ccncc4)nc3c2)c1 [Compound 23]	0.501 µM	5.62 µM	> 10 µM						
COCCN(c1cc(OC)cc(OC)c1)c1ccc2ncc(-c3ccn(C)c3)nc2c1 [Compound 6]	0.00437 µM		> 10 µM	> 10 µM			> 10 µM		
COc1cc(OC)cc(N(CC2CC2)c2ccc3ncc(-c4ccnn4C)nc3c2)c1 [Compound 18]		> 10 µM	> 10 µM	> 10 µM	> 10 µM		> 10 µM		
COc1cc(OC)cc(N(CC2CC2)c2ccc3ncc(-c4cnn(C)n4)nc3c2)c1 [Compound 70]		> 10 µM	> 10 µM	> 10 µM	> 10 µM	> 10 µM	> 10 µM		
COc1cc(OC)cc(N(CCNC(C)C)c2ccc3ncc(-c4ccncc4)nc3c2)c1 [Compound 12]	0.00214 µM		> 10 µM	> 10 µM			> 10 µM		
COc1cc(OC)cc(N(CC2CC2)c2ccc3ncc(-c4cc[nH]c4)nc3c2)c1 [Compound 36]		> 10 µM	> 10 µM						
COc1cc(OC)cc(N(CC2CC2)c2ccc3ncc(-c4cn(C)cn4)nc3c2)c1 [Compound 21]		> 10 µM	> 10 µM						

The next lines start with results.

IC50 (FGFR1 (h))	SMILES	IC50 ([1]; plus 10 ng/ml murine IL3)	IC50 ([2]; plus 10 ng/ml murine IL3)	IC50 [3, 5]	IC50 [3, 6]	IC50 [4, 7]	IC50 [4, 8]	IC50 ([1]; plus IL3, 96 well)	IC50 ([2]; plus IL3, 384 well)
~0.363 µM	COc1cc(OC)cc(N(CC2CC2)c2ccc3ncc(C(=O)NCCN4CCOCC4)nc3c2)c1 [Compound 96]	> 10 µM							
0.437 µM	COc1cc(OC)cc(N(CC2CC2)c2ccc3ncc(Nc4nccs4)nc3c2)c1 [Compound 98]	> 10 µM							
0.759 µM	COc1cc(OC)cc(N(CC2CC2)c2ccc3ncc(-n4cncn4)nc3c2)c1 [Compound 50]	> 10 µM	> 10 µM	> 10 µM	> 10 µM	> 10 µM	> 10 µM		
0.0794 µM	COc1cc(OC)cc(N(CC2CC2)c2ccc3ncc(-c4cn[nH]n4)nc3c2)c1 [Compound 69]	> 10 µM	> 10 µM						
> 1 µM	COc1cc(OC)cc(N(CC2CC2)c2ccc3ncc(Nc4nncs4)nc3c2)c1 [Compound 102]	> 10 µM							
> 1 µM	COc1cc(OC)cc(N(CC2CC2)c2ccc3ncc(-c4cccn4C)nc3c2)c1 [Compound 103]	> 10 µM							
> 1 µM	CCOC(=O)c1ncn(-c2cnc3ccc(N(CC4CC4)c4cc(OC)cc(OC)c4)cc3n2)c1C [Compound 65]	> 10 µM	> 10 µM						
> 1 µM	COc1cc(OC)cc(N(CC2CC2)c2ccc3ncc(-n4nccc4C)nc3c2)c1 [Compound 62]	> 10 µM	> 10 µM						
0.575 µM	COc1cc(OC)cc(N(CC2CC2)c2ccc3ncc(-c4nccs4)nc3c2)c1 [Compound 97]	> 10 µM							
0.309 µM	COc1cc(OC)cc(N(CC2CC2)c2ccc3ncc(-c4nnn(C)n4)nc3c2)c1 [Compound 82]	> 10 µM							
0.0372 µM	COc1cc(OC)cc(N(CC2CC2)c2ccc3ncc(-c4cnco4)nc3c2)c1 [Compound 55]	> 10 µM	> 10 µM						
0.0186 µM	COc1cc(OC)cc(N(CCO)c2ccc3ncc(-c4ccnc(C(=O)NCCCN)c4)nc3c2)c1 [Compound 123]		> 10 µM	> 10 µM			> 10 µM		
0.135 µM	COc1cc(OC)cc(N(CC2CC2)c2ccc3ncc(-c4ccn[nH]4)nc3c2)c1 [Compound 58]	> 10 µM	8.32 µM						
0.575 µM	COc1cc(OC)cc(N(CC2CC2)c2ccc3ncc(-c4nccn4C)nc3c2)c1 [Compound 60]	> 10 µM	> 10 µM						
0.537 µM	COc1cc(OC)cc(N(CC2CC2)c2ccc3ncc(-c4cnnn4C)nc3c2)c1 [Compound 72]	> 10 µM	> 10 µM						
0.0186 µM	COc1cc(OC)cc(N(CCCO)c2ccc3ncc(-c4cccnc4)nc3c2)c1 [Compound 112]		> 10 µM	> 10 µM			> 10 µM		
> 1 µM	COc1cc(OC)cc(N(CC2CC2)c2ccc3ncc(C(=O)NCc4ccc(F)cc4)nc3c2)c1 [Compound 101]	> 10 µM							
